# Assay results from patent publication US20210330611A1, “THERAPY FOR NEUROLOGICAL DISEASES/DISORDERS” (priority 2020, published 2021).
# Where a name gives a salt, the structure may show the parent alone. Read-outs that look alike come from different tables or passages of the source.
# Tests used:
# [1] = tested on: fibrin-induced microglia activation; assay: Image-based assay of fibrin-induced microglia activation (HTS and dose response); assay type: cell-based, rat; conditions: for inhibition at 10 µM: Rattus norvegicus, Microglia, read-out: Fibrin % inhibition
# [2] = tested on: LPS-induced microglia activation; assay: Image-based assay of LPS-induced microglia activation (HTS and dose response); assay type: cell-based, rat; conditions: for inhibition at 10 µM: Rattus norvegicus, Microglia, read-out: LPS % inhibition
# [3] = tested on: fibrin- and LPS-induced microglia activation; assay: cells; assay type: cell-based, rat
# primary rat microglia [4] = tested on: primary rat microglia
# primary rat microglia [5] = tested on: primary rat microglia; remark: listed apart in the source
# primary rat microglia [6] = assay: Cell toxicity (dead cells, size <150 μm2) in LPS assay; conditions: read-out: Cell Toxicity IC50 (uM) [LPS assay]
# primary rat microglia [7] = assay: Cell toxicity (dead cells, size <150 μm2) in coated fibrin (cFib) assay; conditions: read-out: Cell Toxicity IC50 (uM) [cFib assay];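 as to Fibrin % cell toxicity: share of dead cells sized under 150 µm2 at 10 µM in fibrin-stimulated microglia HTS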
# [8] = primary microglia HTS, fibrin stimulation, increased cell size (>800 μm^2) as marker of activation
# [9] = primary microglia HTS, LPS stimulation, increased cell size (>800 μm^2) as marker of activation
# [10] = HTS of 1907 compounds, quadrant by fibrin and LPS inhibition
# [11] = quadrant by fibrin and LPS inhibition in HTS of 1907 compounds
# [12] = primary microglia HTS, 10 μM, fibrin-stimulated, cell size >800 μm^2 as marker of activation
# [13] = primary microglia HTS, 10 μM, LPS-stimulated, cell size >800 μm^2 as marker of activation
# [14] = quadrant by fibrin and LPS inhibition, HTS at 10 μM
# [15] = read-out: Fibrin IC50 (uM) (Suppl. Table 7)
# [16] = read-out: LPS IC50 (uM) (Suppl. Table 7)
compound,measurement,setting,value
"COc1cc2c(cc1O)CC[C@@H]1[C@@H]2CC[C@]2(C)[C@@H](O)CC[C@@H]12 [2-methoxyestradiol, reference compound]",Fibrin Selectivity,[1],2
same,Fibrin Selectivity (LOG10),[1],0.21
same,IC50,"[1]; Table 1, dose response 0.001-20 μM, triplicates, primary rat microglia, 48 h, read-out: Fibrin IC50",3 µM
same,IC50,"[1]; Table 3, read-out: Fibrin IC50 (uM) (Suppl. Table 7)",3 µM
same,IC50,"[1]; dose response, fibrin-induced microglia activation, read-out: Fibrin IC50",3 µM
same,IC50,"[1]; fibrin-induced microglia activation, dose response, read-out: Fibrin IC50 (uM) (Suppl. Table 7)",3 µM
same,Fibrin % inhibition,[1]; [8],63%
same,IC50,"[2]; LPS-induced microglia activation, dose response, read-out: LPS IC50 (uM) (Suppl. Table 7)",5 µM
same,IC50,"[2]; Table 1, dose response 0.001-20 μM, triplicates, primary rat microglia, 48 h, read-out: LPS IC50",5 µM
same,IC50,"[2]; Table 3, read-out: LPS IC50 (uM) (Suppl. Table 7)",5 µM
same,IC50,"[2]; dose response, LPS-induced microglia activation, read-out: LPS IC50",5 µM
same,LPS % inhibition,[2]; [9],65%
same,Hit,[3]; HTS hit classification,HIT (Hits were defined as molecules that exhibited greater than 50% inhibition of either fibrin or LPS activation)
same,Quadrant (FIG. 5b),[3]; [10],Q2
same,Quadrant (FIG. 5b),"[3]; Table 1, screen at 10 μM",Q2
same,Cherry-picked Hit (Suppl. Table 7),[3]; Table 3,HIT (Hits were defined as molecules that exhibited greater than 50% inhibition of either fibrin or LPS activation)
same,Quadrant (FIG. 5b),"[3]; Table 3, screen at 10 μM",Q2
same,Cherry-picked Hit (Suppl. Table 7),[3]; hit classification in microglia HTS,HIT (Hits were defined as molecules that exhibited greater than 50% inhibition of either fibrin or LPS activation)
same,Quadrant (FIG. 5b),[3]; [11],Q2
same,Fibrin % cell toxicity,primary rat microglia [4],2%
same,LPS % cell toxicity,primary rat microglia [5],2%
same,IC50,primary rat microglia [6]; LPS assay,> 20 µM
same,IC50,primary rat microglia [6]; Table 3,> 20 µM
same,IC50,primary rat microglia [7]; Table 3,> 20 µM
same,IC50,primary rat microglia [7]; cFib assay,> 20 µM
CCCC(CCC)C(=O)O [Valproic Acid],inhibition at 10 µM,[1]; [12],-28%
same,inhibition at 10 µM,[2]; [13],27%
same,Quadrant (FIG. 5b),[3]; [10],Q4
same,Fibrin % cell toxicity,primary rat microglia [4]; rat,0%
same,LPS % cell toxicity,primary rat microglia [5]; rat,0%
CN[C@H](CC(C)C)C(=O)N[C@H]1C(=O)N[C@@H](CC(N)=O)C(=O)N[C@H]2C(=O)N[C@H]3C(=O)N[C@H](C(=O)N[C@H](C(=O)O)c4cc(O)cc(O)c4-c4cc3ccc4O)[C@H](O)c3ccc(c(Cl)c3)Oc3cc2cc(c3O[C@@H]2O[C@H](CO)[C@@H](O)[C@H](O)[C@H]2O[C@H]2C[C@](C)(N)[C@H](O)[C@H](C)O2)Oc2ccc(cc2Cl)[C@H]1O [Vancomycin Hydrochloride],Fibrin % inhibition,[1]; 10 µM,−20%
same,LPS % inhibition,[2]; 10 µM,9%
same,Quadrant (FIG. 5b),[3],Q4
same,Fibrin % cell toxicity,primary rat microglia [4]; rat,1%
same,LPS % cell toxicity,primary rat microglia [5]; rat,0%
CN[C@H](CC(C)C)C(=O)N[C@H]1C(=O)N[C@@H](CC(N)=O)C(=O)N[C@H]2C(=O)N[C@H]3C(=O)N[C@H](C(=O)N[C@H](C(=O)O)c4cc(O)cc(O)c4-c4cc3ccc4O)[C@H](O)c3ccc(c(Cl)c3)Oc3cc2cc(c3O[C@@H]2O[C@H](CO)[C@@H](O)[C@H](O)[C@H]2O[C@H]2C[C@](C)(N)[C@H](O)[C@H](C)O2)Oc2ccc(cc2Cl)[C@H]1O [Vancomycin],Fibrin % inhibition,[1]; 10 µM,−1%
same,LPS % inhibition,[2]; 10 µM,−2%
same,Quadrant (FIG. 5b),[3],Q4
same,Fibrin % cell toxicity,primary rat microglia [4]; rat,1%
same,LPS % cell toxicity,primary rat microglia [5]; rat,0%
Clc1ccc(Nc2nnc(Cc3ccncc3)c3ccccc23)cc1 [Vatalanib],inhibition at 10 µM,[1]; [12],-26%
same,inhibition at 10 µM,[2]; [13],-3%
same,Quadrant (FIG. 5b),[3]; [10],Q4
same,Fibrin % cell toxicity,primary rat microglia [4]; rat,1%
same,LPS % cell toxicity,primary rat microglia [5]; rat,0%
CC[C@]1(O)C[C@H]2CN(CCc3c([nH]c4ccccc34)[C@@](C(=O)OC)(c3cc4c(cc3OC)N(C=O)[C@H]3[C@@](O)(C(=O)OC)[C@H](OC(C)=O)[C@]5(CC)C=CCN6CC[C@]43[C@@H]65)C2)C1 [Vincristine Sulfate],Fibrin % inhibition,"[1]; primary microglia HTS, fibrin stimulation, compounds at 10 μM, 10 µM",108%
same,LPS % inhibition,"[2]; primary microglia HTS, LPS stimulation, compounds at 10 μM, 10 µM",119%
same,Quadrant (FIG. 5b),[3]; [14],Q2
same,Fibrin % cell toxicity,primary rat microglia [4]; rat,16%
same,LPS % cell toxicity,primary rat microglia [5]; rat,7%
CC[C@]1(O)C[C@H]2CN(CCc3c([nH]c4ccccc34)[C@@](C(=O)OC)(c3cc4c(cc3OC)N(C=O)[C@H]3[C@@](O)(C(=O)OC)[C@H](OC(C)=O)[C@]5(CC)C=CCN6CC[C@]43[C@@H]65)C2)C1 [Vincristine],inhibition at 10 µM,"[1]; primary microglia HTS, fibrin stimulation, compounds at 10 μM",105%
same,inhibition at 10 µM,"[2]; primary microglia HTS, LPS stimulation, compounds at 10 μM",104%
same,Quadrant (FIG. 5b),[3]; [14],Q2
same,Fibrin % cell toxicity,primary rat microglia [4]; rat,33%
same,LPS % cell toxicity,primary rat microglia [5]; rat,10%
"CC[C@]1(O)C[C@@H]2CN(CCc3c([nH]c4ccccc34)[C@@](C(=O)OC)(c3cc4c(cc3OC)N(C)[C@H]3[C@@](O)(C(N)=O)[C@H](O)[C@]5(CC)C=CCN6CC[C@]43[C@@H]65)C2)C1 [Vindesine, Vindesine Sulfate]",Fibrin % inhibition,[1]; 10 µM,106%
same,LPS % inhibition,[2]; 10 µM,102%
same,Quadrant (FIG. 5b),[3],Q2
same,Fibrin % cell toxicity,primary rat microglia [4],30%
same,LPS % cell toxicity,primary rat microglia [5],9%
CCOC(=O)C1=C[C@]2(CC)CCCN3CCc4c(n1c1ccccc41)[C@@H]32 [Vinpocetine],inhibition at 10 µM,[1]; [12],-19%
same,inhibition at 10 µM,[2]; [13],0%
same,Quadrant (FIG. 5b),[3]; [10],Q4
same,Fibrin % cell toxicity,primary rat microglia [4]; rat,0%
same,LPS % cell toxicity,primary rat microglia [5]; rat,0%
COc1cc(C(=O)NS(=O)(=O)c2ccccc2C)ccc1Cc1cn(C)c2ccc(NC(=O)OC3CCCC3)cc12 [Zafirlukast],inhibition at 10 µM,[1]; [12],-21%
same,inhibition at 10 µM,[2]; [13],3%
same,Quadrant (FIG. 5b),[3]; [10],Q4
same,Fibrin % cell toxicity,primary rat microglia [4]; rat,0%
same,LPS % cell toxicity,primary rat microglia [5]; rat,1%
Nc1ccn([C@H]2CC[C@@H](CO)O2)c(=O)n1 [Zalcitabine],inhibition at 10 µM,[1]; [12],-10%
same,inhibition at 10 µM,[2]; [13],11%
same,Quadrant (FIG. 5b),[3]; [10],Q4
same,Fibrin % cell toxicity,primary rat microglia [4]; rat,0%
same,LPS % cell toxicity,primary rat microglia [5]; rat,0%
"O=C1Cc2cc(CCN3CCN(c4nsc5ccccc45)CC3)c(Cl)cc2N1 [Ziprasidone Mesylate, Ziprasidone]",Fibrin % inhibition,[1]; [12],14%
same,LPS % inhibition,[2]; [13],35%
same,Quadrant (FIG. 5b),[3]; [10],Q4
same,Fibrin % cell toxicity,primary rat microglia [4],1%
same,LPS % cell toxicity,primary rat microglia [5],1%
"Cc1ccc(-c2nc3ccc(C)cn3c2CC(=O)N(C)C)cc1 [Zolpidem, Zolpidem Tartrate]",Fibrin % inhibition,[1]; 10 µM,−12%
same,LPS % inhibition,[2]; 10 µM,4%
same,Quadrant (FIG. 5b),[3],Q4
same,Fibrin % cell toxicity,primary rat microglia [4],0%
same,LPS % cell toxicity,primary rat microglia [5],0%
Acriflavinium Hydrochloride,Fibrin % inhibition,[1]; [8],110%
same,LPS % inhibition,[2]; [9],129%
same,Quadrant (FIG. 5b),[3]; [11],Q2
same,Fibrin % cell toxicity,primary rat microglia [4],57%
same,LPS % cell toxicity,primary rat microglia [5],63%
Hydrocortisone hemisuccinate [reference compound],Fibrin % inhibition,[1],100%
same,fib specificity,[1],8.4
same,fib_HS,[1],−0.39
same,IC50,[1]; read-out: Fibrin IC50,0.02 µM
same,IC50,[1]; [15],0.02 µM
same,IC50,[1]; read-out: fib_IC50,0.004 µM
same,LPS % inhibition,[2],64%
same,LPS specificity,[2],0.1
same,LPS_HS,[2],−1.10
same,IC50,[2]; read-out: LPS IC50,7 µM
same,IC50,[2]; [16],7 µM
same,IC50,[2]; read-out: LPS_IC50,0.036 µM
same,Activity,[3],fib/LPS
same,Cherry-picked Hit (Suppl. Table 7),[3],HIT (key: HIT: Hits were defined as molecules that exhibited greater than 50% inhibition of either fibrin or LPS activation)
same,Hit,[3],HIT (key: HIT: Hits were defined as molecules that exhibited greater than 50% inhibition of either fibrin or LPS activation)
same,Quadrant (FIG. 5b),[3],Q2
same,Fibrin % cell toxicity,primary rat microglia [4],1%
same,IC50,primary rat microglia [4],> 20 µM
same,IC50,primary rat microglia [5],> 20 µM
same,LPS % cell toxicity,primary rat microglia [5],1%
Modaline Sulfate,Fibrin % inhibition,[1],−9%
same,LPS % inhibition,[2],25%
same,Quadrant (FIG. 5b),[3],Q4
same,Fibrin % cell toxicity,primary rat microglia [4],1%
same,LPS % cell toxicity,primary rat microglia [5],0%
Prednisolone sodium phosphate [reference compound],Fibrin % inhibition,[1],108%
same,IC50,[1]; read-out: Fibrin IC50,0.1 µM
same,IC50,[1]; [15],0.1 µM
same,LPS % inhibition,[2],96%
same,IC50,[2]; read-out: LPS IC50,4 µM
same,IC50,[2]; [16],4 µM
same,Cherry-picked Hit (Suppl. Table 7),[3],HIT (key: HIT: Hits were defined as molecules that exhibited greater than 50% inhibition of either fibrin or LPS activation)
same,Hit,[3],HIT (key: HIT: Hits were defined as molecules that exhibited greater than 50% inhibition of either fibrin or LPS activation)
same,Quadrant (FIG. 5b),[3],Q2
same,Fibrin % cell toxicity,primary rat microglia [4],3%
same,IC50,primary rat microglia [4],> 20 µM
same,IC50,primary rat microglia [5],> 20 µM
same,LPS % cell toxicity,primary rat microglia [5],3%
Sulfanilate Zinc,Fibrin % inhibition,[1]; 10 µM,−6%
same,LPS % inhibition,[2]; 10 µM,15%
same,Quadrant (FIG. 5b),[3],Q4
same,Fibrin % cell toxicity,primary rat microglia [4],0%
same,LPS % cell toxicity,primary rat microglia [5],0%
Vitamin A,Fibrin % inhibition,[1]; [12],15%
same,LPS % inhibition,[2]; [13],17%
same,Quadrant (FIG. 5b),[3]; [10],Q4
same,Fibrin % cell toxicity,primary rat microglia [4],1%
same,LPS % cell toxicity,primary rat microglia [5],0%
